Measured values: US11166924B2, “N-methyl-d-aspartate receptor allosteric modulators and methods for their use” (Qingdao Primedicine Pharmaceutical Company, Ltd., priority 2016, dated 2021)

How the values were obtained:
GluN1 or GluN2A mutants = assay: Patch clamp in HEK293 cells, another 8 mutations within the defined pocket (summary); type: cell-based, rat
Experimental: Whole cell patch-clamp recordings were performed under voltage-clamp mode using an Axopatch 200B or 1D patch-clamp amplifier (Molecular Devices). Whole-cell currents were recorded at a holding potential of −60 mV unless indicated elsewhere, and signals were filtered at 2 kHz, digitized at 10 kHz (Digidata 1322A). Recording pipettes (3-5 MΩ) were filled with intracellular solution containing (mM): CsCl 140, HEPES 10, Mg-ATP 4, QX-314 5, pH 7.20; osmolarity, 290-295 mOsm. BAPTA (10 mM) was added in the intracellular solution (unless otherwise specified). The coverslips were continuously superfused with extracellular solution containing (mM): NaCl 140, KCl 5.4, HEPES 10, CaCl2 1.3, glucose 20, pH 7.4; osmolarity, 305-315 mOsm. NMDA-induced currents were applied by NMDA through perfusion fast-step (Warner Instruments). With perfusion fast-step system, NMDA application was achieved by using a two-square barrel glass tubing and depending on the age of the cultured neurons, CNQX (10 μM), TTX (0.5 μM) or BIC (10 μM) were added in the extracellular solution to minimize the activation of ionotropic glutamate receptors and voltage-gated sodium channels, respectively. All experiments were performed at room temperature. Recordings from at least six HEK293 cells/neurons were performed for all active compounds. […]

[1] = Pharmacokinetics after i.v. injection, CSF and serum by HPLC-ECD; type: in vivo, rat
Experimental: Npam43 was isolated from the CSF and serum matrix using high performance liquid chromatography and quantified via electrochemical detection. The system consisted of an ESA 582 pump (Bedford, Mass.), a pulse damper (Scientific Systems Inc., State College, Pa.), a Rheodyne Inert manual injector (model 9125i, 20 μL injection loop; Rohnert Park, Calif.), a Tosoh Bioscience Super ODS TSK column (2 μm particle, 2 mm×10 mm; Montgomeryville, Pa.), and an Antec Leyden Intro Electrochemical detector with VT-03 flow cell with a Ag/AgCl reference electrode (Vapplied=+800 mV; Leyden, The Netherlands). The mobile phase was a 20 mM phosphate buffer-acetonitrile (80:20, v/v) mixture, pH 7.0, flowed through the system at 0.1 mL/min. The column was maintained at 40° C. throughout the analysis and the injection volume was 8 uL. Prior to use, the mobile was filtered through a […] membrane and degassed using a vacuum pump and maintained under helium purging during experimental testing. EZChrome Elite software (Scientific Software, Pleasanton, Calif.) was used to acquire and analyze chromatographic data.
Samples were prepared by mixing aliquots (50:50) of the specimen with acetonitrile. The samples were mixed, allowed to rest at ambient temperature for 10 min and centrifuged at 5000 g for 5 min. Eight microliters of the supernatant was injected.
CSF and serum samples generated from the in vivo studies were thawed, and 8 μl was transferred to individual Eppendorf tubes. The internal standard (IS) of 2 μl of 0.5 μg/ml Npam50 was then added, followed by 22 μl of acetonitrile, after which samples were vortexed for 5-10 s and centrifuged for 5 min at 20,000×g to sediment precipitated protein. […]
An in-vivo pharmacological profile of Npam43 was evaluated using Sprague Dawley mature (˜300 g) rats. Npam43 was injected intravenously (i.v) at different doses ranging from 0.5-5 mg/kg and cerebrospinal fluid (CSF) and serum samples were extracted and analyzed using a high performance liquid chromatography electrochemical detection assay (HPLC-ECD). […]

## CCOc1cc(Cl)c(Cl)c(/C=N/NC(=O)c2ccccc2Br)c1O [Npam43, (E)-2-bromo-N′-(2,3-dichloro-5-ethoxy-6-hydroxybenzylidene)benzohydrazide]
GluN1 or GluN2A mutants
  Reduction in potentiation: 10-62%
[1]; Sprague-Dawley, rat, CSF, iv, rats, estimated
  half-life: 2.95 ± 0.6 h
[1]; i.v. 0.5-5 mg/kg, Sprague Dawley rats
  Blood-brain-barrier penetration: effective at penetrating the blood-brain-barrier (BBB)
[1]; i.v., rats, FIG. 22
  Metabolic stability in the CSF and serum: moderate metabolic stability
